# Assay results as given in patent US20150296790A1, “SILICON-CONTAINING COMPOUND AQUEOUS SOLUTION AND ANTIBACTERIAL/ANTIVIRAL AGENT INCLUDING SAID SOLUTION” (JEX CO., LTD., priority 2012, published 2015).
# Experiment: Solubility of Silicon-Containing Compound E in aqueous CD solutions (clarity and stability, visual)
# Type: physicochemical
# Set-up: key to Solubility of Compound E: Stability: OK: When the aqueous solutions of the CD and the Silicon-Containing Compound E did not exhibit the conditions such as presence of precipitates and deposits, the solutions were considered as stable; NG: When the aqueous solutions of the CD and the Silicon-Containing Compound E exhibited the conditions such as presence of precipitates and deposits, the solutions were not considered as stable; key to Solubility of Compound E: Clarity: When the aqueous solutions of the CD and the Silicon-Containing Compound E were clear, the solutions were rated as “OK”; When the aqueous solutions of the CD and the Silicon-Containing Compound E were not clear, the solutions were rated as “NG”
# Conditions: purified water
# Experimental: To determine “Solubility of Compound E” in the tables, the Silicon-Containing Compound E as another solute was added at respective ratios shown in the respective tables (see “Ratio of Compound E” in the tables) to the respective aqueous CD solutions after evaluation of the solubility of CD, and then the mixture was stirred on a shaker to prepare the respective aqueous solutions of the CD and the Silicon-Containing Compound E. Immediately after preparation of the aqueous solutions of the CD and the Silicon-Containing Compound E, the clarity of the aqueous solutions was visually evaluated. When the aqueous solutions of the CD and the Silicon-Containing Compound E were clear, the solutions were rated as “OK”. When the aqueous solutions of the CD and the Silicon-Containing Compound E were not clear, the solutions were rated as “NG”. “Stability” in “Solubility of Compound E” in the tables was determined by allowing the respective aqueous solutions of the CD and the Silicon-Containing Compound E after preparation to stand at ambient temperature for a predetermined period and then visually evaluating the conditions (such as presence of precipitates and deposits) of the solutions.
# [1] = DEXYPEARL 1 w/w %, Compound E 0.1 w/w %
# [2] = DEXYPEARL 2 w/w %, Compound E 0.1 w/w %
# [3] = DEXYPEARL 3 w/w %, Compound E 0.1 w/w %
# [4] = DEXYPEARL 4 w/w %, Compound E 0.1 w/w %
# [5] = DEXYPEARL 5 w/w %, Compound E 0.1 w/w %
# [6] = DEXYPEARL 6 w/w %, Compound E 0.1 w/w %
# [7] = DEXYPEARL 7 w/w %, Compound E 0.1 w/w %
# [8] = DEXYPEARL 8 w/w %, Compound E 0.1 w/w %
# [9] = DEXYPEARL 9 w/w %, Compound E 0.1 w/w %
# [10] = DEXYPEARL 10 w/w %, Compound E 0.1 w/w %
# [11] = DEXYPEARL 20 w/w %, Compound E 0.1 w/w %
# [12] = DEXYPEARL 30 w/w %, Compound E 0.1 w/w %
# [13] = DEXYPEARL 40 w/w %, Compound E 0.1 w/w %
# [14] = ISOELEAT 1 w/w %, Compound E 0.1 w/w %
# [15] = ISOELEAT 2 w/w %, Compound E 0.1 w/w %
# [16] = ISOELEAT 3 w/w %, Compound E 0.1 w/w %
# [17] = ISOELEAT 4 w/w %, Compound E 0.1 w/w %
# [18] = ISOELEAT 5 w/w %, Compound E 0.1 w/w %
# [19] = ISOELEAT 6 w/w %, Compound E 0.1 w/w %
# [20] = ISOELEAT 7 w/w %, Compound E 0.1 w/w %
# [21] = ISOELEAT 8 w/w %, Compound E 0.1 w/w %
# [22] = ISOELEAT 9 w/w %, Compound E 0.1 w/w %
# [23] = ISOELEAT 10 w/w %, Compound E 0.1 w/w %
# [24] = ISOELEAT 20 w/w %, Compound E 0.1 w/w %
# [25] = ISOELEAT 30 w/w %, Compound E 0.1 w/w %
# [26] = ISOELEAT 40 w/w %, Compound E 0.1 w/w %
# [27] = ISOELEAT 50 w/w %, Compound E 0.1 w/w %
# [28] = α-CD 1 w/w %, Compound E 0.1 w/w %
# [29] = α-CD 1 w/w %, Compound E 0.2 w/w %
# [30] = α-CD 1 w/w %, Compound E 0.3 w/w %
# [31] = α-CD 1 w/w %, Compound E 0.4 w/w %
# [32] = α-CD 1 w/w %, Compound E 0.5 w/w %
# [33] = α-CD 1 w/w %, Compound E 0.6 w/w %
# [34] = α-CD 1 w/w %, Compound E 0.7 w/w %
# [35] = α-CD 1 w/w %, Compound E 0.8 w/w %
# [36] = α-CD 1 w/w %, Compound E 0.9 w/w %
# [37] = α-CD 1 w/w %, Compound E 1 w/w %
# [38] = α-CD 7 w/w %, Compound E 0.1 w/w %
# [39] = α-CD 7 w/w %, Compound E 0.2 w/w %
# [40] = α-CD 7 w/w %, Compound E 0.3 w/w %
# [41] = α-CD 7 w/w %, Compound E 0.4 w/w %
# [42] = α-CD 7 w/w %, Compound E 0.5 w/w %
# [43] = α-CD 7 w/w %, Compound E 0.6 w/w %
# [44] = α-CD 7 w/w %, Compound E 0.7 w/w %
# [45] = α-CD 7 w/w %, Compound E 0.8 w/w %
# [46] = α-CD 7 w/w %, Compound E 0.9 w/w %
# [47] = α-CD 7 w/w %, Compound E 1 w/w %
# [48] = β-CD 1 w/w %, Compound E 0.1 w/w %
structure (smiles),measurement,setting,value
"CCCCCCCCCCCCCCCCCC[N+](C)(C)CCC[Si](OCC)(OCC)OCC.[Cl-] [Compound E, Octadecyl dimethyl(3-triethoxysilylpropyl)ammonium chloride]",Solubility of Compound E: Clarity,[1],OK
same,Solubility of Compound E: Stability,[1],OK
same,Solubility of Compound E: Clarity,[2],OK
same,Solubility of Compound E: Stability,[2],OK
same,Solubility of Compound E: Clarity,[3],OK
same,Solubility of Compound E: Stability,[3],OK
same,Solubility of Compound E: Clarity,[4],OK
same,Solubility of Compound E: Stability,[4],OK
same,Solubility of Compound E: Clarity,[5],OK
same,Solubility of Compound E: Stability,[5],OK
same,Solubility of Compound E: Clarity,[6],OK
same,Solubility of Compound E: Stability,[6],OK
same,Solubility of Compound E: Clarity,[7],OK
same,Solubility of Compound E: Stability,[7],OK
same,Solubility of Compound E: Clarity,[8],OK
same,Solubility of Compound E: Stability,[8],OK
same,Solubility of Compound E: Clarity,[9],OK
same,Solubility of Compound E: Stability,[9],OK
same,Solubility of Compound E: Clarity,[10],OK
same,Solubility of Compound E: Stability,[10],OK
same,Solubility of Compound E: Clarity,[11],OK
same,Solubility of Compound E: Stability,[11],NG
same,Solubility of Compound E: Clarity,[12],NG
same,Solubility of Compound E: Stability,[12],NG
same,Solubility of Compound E: Clarity,[13],NG
same,Solubility of Compound E: Stability,[13],NG
same,Solubility of Compound E: Clarity,[14],OK
same,Solubility of Compound E: Stability,[14],OK
same,Solubility of Compound E: Clarity,[15],OK
same,Solubility of Compound E: Stability,[15],OK
same,Solubility of Compound E: Clarity,[16],OK
same,Solubility of Compound E: Stability,[16],OK
same,Solubility of Compound E: Clarity,[17],OK
same,Solubility of Compound E: Stability,[17],OK
same,Solubility of Compound E: Clarity,[18],OK
same,Solubility of Compound E: Stability,[18],OK
same,Solubility of Compound E: Clarity,[19],OK
same,Solubility of Compound E: Stability,[19],OK
same,Solubility of Compound E: Clarity,[20],OK
same,Solubility of Compound E: Stability,[20],OK
same,Solubility of Compound E: Clarity,[21],OK
same,Solubility of Compound E: Stability,[21],OK
same,Solubility of Compound E: Clarity,[22],OK
same,Solubility of Compound E: Stability,[22],OK
same,Solubility of Compound E: Clarity,[23],NG
same,Solubility of Compound E: Stability,[23],NG
same,Solubility of Compound E: Clarity,[24],NG
same,Solubility of Compound E: Stability,[24],NG
same,Solubility of Compound E: Clarity,[25],NG
same,Solubility of Compound E: Stability,[25],NG
same,Solubility of Compound E: Clarity,[26],NG
same,Solubility of Compound E: Stability,[26],NG
same,Solubility of Compound E: Clarity,[27],NG
same,Solubility of Compound E: Stability,[27],NG
same,Solubility of Compound E: Clarity,[28],NG
same,Solubility of Compound E: Stability,[28],OK
same,Solubility of Compound E: Clarity,[29],NG
same,Solubility of Compound E: Stability,[29],OK
same,Solubility of Compound E: Clarity,[30],NG
same,Solubility of Compound E: Stability,[30],OK
same,Solubility of Compound E: Clarity,[31],NG
same,Solubility of Compound E: Stability,[31],OK
same,Solubility of Compound E: Clarity,[32],NG
same,Solubility of Compound E: Stability,[32],OK
same,Solubility of Compound E: Clarity,[33],NG
same,Solubility of Compound E: Stability,[33],OK
same,Solubility of Compound E: Clarity,[34],NG
same,Solubility of Compound E: Stability,[34],OK
same,Solubility of Compound E: Clarity,[35],NG
same,Solubility of Compound E: Stability,[35],NG
same,Solubility of Compound E: Clarity,[36],NG
same,Solubility of Compound E: Stability,[36],NG
same,Solubility of Compound E: Clarity,[37],NG
same,Solubility of Compound E: Stability,[37],NG
same,Solubility of Compound E: Clarity,[38],NG
same,Solubility of Compound E: Stability,[38],OK
same,Solubility of Compound E: Clarity,[39],NG
same,Solubility of Compound E: Stability,[39],OK
same,Solubility of Compound E: Clarity,[40],NG
same,Solubility of Compound E: Stability,[40],OK
same,Solubility of Compound E: Clarity,[41],NG
same,Solubility of Compound E: Stability,[41],OK
same,Solubility of Compound E: Clarity,[42],NG
same,Solubility of Compound E: Stability,[42],OK
same,Solubility of Compound E: Clarity,[43],NG
same,Solubility of Compound E: Stability,[43],OK
same,Solubility of Compound E: Clarity,[44],NG
same,Solubility of Compound E: Stability,[44],OK
same,Solubility of Compound E: Clarity,[45],NG
same,Solubility of Compound E: Stability,[45],OK
same,Solubility of Compound E: Clarity,[46],NG
same,Solubility of Compound E: Stability,[46],OK
same,Solubility of Compound E: Clarity,[47],NG
same,Solubility of Compound E: Stability,[47],OK
same,Solubility of Compound E: Clarity,[48],NG
same,Solubility of Compound E: Stability,[48],OK
same,Solubility of Compound E: Clarity,"β-CD 1 w/w %, Compound E 0.2 w/w %",NG
